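1) Cells in 96-well plates. 2) Compound, 48 h, 5 concentrations. 3) Linear interpolation between surrounding doses. 4) Unreached endpoint = highest concentration. Abbreviation: GI50, concentration required for 50% inhibition of growth.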 Active and inactive are the calls of the source. No stated cut-off is given here; in the data, active = GI50 up to about 1.1 µM and inactive = higher.
Legend:
Experiment in all cases: NCI tumour cell line growth inhibition, 48 h
COLO 205 = test system: COLO 205
CCRF-CEM = test system: CCRF-CEM
CAKI-1 = test system: CAKI-1
RXF 393 = test system: RXF 393
OVCAR-8 = test system: OVCAR-8
RPMI-8226 = test system: RPMI-8226
HOP-62 = test system: HOP-62
NCI-H460 = test system: NCI-H460
MDA-MB-435 = test system: MDA-MB-435
UO-31 = test system: UO-31
EKVX = test system: EKVX
DU-145 = test system: DU-145
HCT-15 = test system: HCT-15
HCT-116 = test system: HCT-116
SK-MEL-28 = test system: SK-MEL-28
BT-549 = test system: BT-549
MOLT-4 = test system: MOLT-4
K562 = test system: K562
OVCAR-5 = test system: OVCAR-5
NCI/ADR-RES = test system: NCI/ADR-RES
SW-620 = test system: SW-620
U-251 = test system: U-251
SN12C = test system: SN12C
Hs-578T = test system: Hs-578T
HT-29 = test system: HT-29
NCI-H226 = test system: NCI-H226
A498 = test system: A498
MDA-MB-231 = test system: MDA-MB-231
T47D = test system: T47D
SK-MEL-5 = test system: SK-MEL-5
SK-OV-3 = test system: SK-OV-3
KM12 = test system: KM12
M14 = test system: M14
NCI-H23 = test system: NCI-H23
SK-MEL-2 = test system: SK-MEL-2
UACC-62 = test system: UACC-62
SNB-75 = test system: SNB-75
Malme-3M = test system: Malme-3M
OVCAR-4 = test system: OVCAR-4
MDA-N = test system: MDA-N
A549 = test system: A549
MCF7 = test system: MCF7
HL-60 = test system: HL-60
OVCAR-3 = test system: OVCAR-3
SF-539 = test system: SF-539
IGROV-1 = test system: IGROV-1
SR = test system: SR
PC-3 = test system: PC-3
HOP-92 = test system: HOP-92
TK-10 = test system: TK-10
UACC-257 = test system: UACC-257
SNB-19 = test system: SNB-19
ACHN = test system: ACHN
786-0 = test system: 786-0
NCI-H522 = test system: NCI-H522
SF-268 = test system: SF-268
SF-295 = test system: SF-295
LOX IMVI = test system: LOX IMVI
HCC 2998 = test system: HCC 2998

Q: Which results are given for Nc1nc(Cl)cc(NCC2(CO)CCCCC2)n1?
A: GI50 (COLO 205): > 100 µM (inactive); GI50 (CCRF-CEM): > 100 µM (inactive); GI50 (CAKI-1): > 100 µM (inactive); GI50 (RXF 393): > 100 µM (inactive); GI50 (OVCAR-8): > 100 µM (inactive); GI50 (RPMI-8226): 97.5 µM (inactive); GI50 (HOP-62): > 100 µM (inactive); GI50 (NCI-H460): > 100 µM (inactive); GI50 (MDA-MB-435): > 100 µM (inactive); GI50 (UO-31): > 100 µM (inactive); GI50 (EKVX): 67 µM (inactive); GI50 (DU-145): > 100 µM (inactive); GI50 (HCT-15): > 100 µM; GI50 (HCT-116): > 100 µM (inactive); GI50 (SK-MEL-28): > 100 µM (inactive); GI50 (BT-549): > 100 µM (inactive); GI50 (MOLT-4): 59.4 µM (inactive); GI50 (K562): 94 µM (inactive); GI50 (OVCAR-5): > 100 µM (inactive); GI50 (NCI/ADR-RES): 39.7 µM (inactive); GI50 (SW-620): > 100 µM (inactive); GI50 (U-251): > 100 µM (inactive); GI50 (SN12C): 81.1 µM (inactive); GI50 (Hs-578T): > 100 µM (inactive); GI50 (HT-29): > 100 µM (inactive); GI50 (NCI-H226): > 100 µM (inactive); GI50 (A498): 70.8 µM (inactive); GI50 (MDA-MB-231): > 100 µM (inactive); GI50 (T47D): 38.5 µM (inactive); GI50 (SK-MEL-5): 44 µM (inactive); GI50 (SK-OV-3): > 100 µM (inactive); GI50 (KM12): > 100 µM (inactive); GI50 (M14): > 100 µM (inactive); GI50 (NCI-H23): 48.9 µM (inactive); GI50 (SK-MEL-2): > 100 µM (inactive); GI50 (UACC-62): > 100 µM (inactive); GI50 (SNB-75): > 100 µM (inactive); GI50 (Malme-3M): > 100 µM (inactive); GI50 (OVCAR-4): 80.7 µM (inactive); GI50 (MDA-N): > 100 µM (inactive); GI50 (A549): > 100 µM (inactive); GI50 (MCF7): 97.9 µM (inactive); GI50 (HL-60): > 100 µM (inactive); GI50 (OVCAR-3): > 100 µM (inactive); GI50 (SF-539): > 100 µM (inactive); GI50 (IGROV-1): > 100 µM (inactive); GI50 (SR): 68.2 µM (inactive); GI50 (PC-3): 83.4 µM (inactive); GI50 (HOP-92): 56.9 µM (inactive); GI50 (TK-10): > 100 µM (inactive); GI50 (UACC-257): 64.7 µM (inactive); GI50 (SNB-19): > 100 µM (inactive); GI50 (ACHN): > 100 µM (inactive); GI50 (786-0): > 100 µM (inactive); GI50 (NCI-H522): > 100 µM (inactive); GI50 (SF-268): > 100 µM (inactive); GI50 (SF-295): > 100 µM (inactive); GI50 (LOX IMVI): 49.3 µM (inactive)

Q: Which results are given for Cc1ccc2c(C(=O)c3c(C)n(CCN4CCOCC4)c4ccccc34)cccc2c1?
A: GI50 (CCRF-CEM): 1.79 µM (inactive); GI50 (CAKI-1): 25.1 µM (inactive); GI50 (RXF 393): 13.9 µM (inactive); GI50 (OVCAR-8): 10.8 µM (inactive); GI50 (RPMI-8226): 0.0592 µM (active); GI50 (HOP-62): 27.3 µM (inactive); GI50 (NCI-H460): 21.1 µM (inactive); GI50 (MDA-MB-435): 2.29 µM (inactive); GI50 (UO-31): 23.2 µM (inactive); GI50 (EKVX): 20.5 µM (inactive); GI50 (DU-145): 27.5 µM (inactive); GI50 (HCT-15): 9.35 µM; GI50 (HCT-116): 7.18 µM (inactive); GI50 (SK-MEL-28): 1.36 µM (inactive); GI50 (BT-549): 14 µM (inactive); GI50 (MOLT-4): 3.88 µM (inactive); GI50 (K562): 1.36 µM (inactive); GI50 (OVCAR-5): 23.2 µM (inactive); GI50 (NCI/ADR-RES): 12.4 µM (inactive); GI50 (SW-620): 0.685 µM (active); GI50 (U-251): 12.9 µM (inactive); GI50 (SN12C): 31.3 µM (inactive); GI50 (Hs-578T): 4.14 µM (inactive); GI50 (HT-29): 11.2 µM (inactive); GI50 (NCI-H226): < 0.01 µM (active); GI50 (A498): 28.6 µM (inactive); GI50 (MDA-MB-231): 17.3 µM (inactive); GI50 (T47D): 17.2 µM (inactive); GI50 (SK-MEL-5): 0.581 µM (active); GI50 (SK-OV-3): 12.8 µM (inactive); GI50 (KM12): 16.3 µM (inactive); GI50 (M14): 16.3 µM (inactive); GI50 (NCI-H23): 14.8 µM (inactive); GI50 (SK-MEL-2): 17.4 µM (inactive); GI50 (UACC-62): 14.3 µM (inactive); GI50 (Malme-3M): 5.98 µM (inactive); GI50 (OVCAR-4): 15.4 µM (inactive); GI50 (MDA-N): 4.06 µM (inactive); GI50 (A549): 24.4 µM (inactive); GI50 (MCF7): 3.53 µM (inactive); GI50 (HL-60): 2.57 µM (inactive); GI50 (OVCAR-3): 3.54 µM (inactive); GI50 (SF-539): 0.156 µM (active); GI50 (IGROV-1): 19.3 µM (inactive); GI50 (SR): 6.43 µM (inactive); GI50 (PC-3): 11.9 µM (inactive); GI50 (HOP-92): 19.1 µM (inactive); GI50 (TK-10): 23.7 µM (inactive); GI50 (UACC-257): 16.3 µM (inactive); GI50 (SNB-19): 33.9 µM (inactive); GI50 (ACHN): 28.6 µM (inactive); GI50 (786-0): 13.8 µM (inactive); GI50 (NCI-H522): 10.6 µM (inactive); GI50 (SF-268): 11.7 µM (inactive); GI50 (SF-295): 7.45 µM (inactive); GI50 (LOX IMVI): 12.9 µM (inactive)

Q: Which results are given for CCCC1NC(=O)C(CC(C)C)NC(=O)c2cccc(n2)C(=O)NC(CC(C)C)C(=O)NC(CCC)C(=O)NC(C(=O)OC)CCCCNC1=O (stereo not given)?
A: GI50 (COLO 205): 40.6 µM (inactive); GI50 (CCRF-CEM): 15.6 µM (inactive); GI50 (CAKI-1): > 100 µM (inactive); GI50 (RXF 393): 31.8 µM (inactive); GI50 (OVCAR-8): 32.8 µM (inactive); GI50 (RPMI-8226): 14.3 µM (inactive); GI50 (HOP-62): 81.3 µM (inactive); GI50 (NCI-H460): > 100 µM (inactive); GI50 (MDA-MB-435): 35.4 µM (inactive); GI50 (UO-31): > 100 µM (inactive); GI50 (EKVX): 20.3 µM (inactive); GI50 (DU-145): > 100 µM (inactive); GI50 (HCT-15): > 100 µM; GI50 (HCT-116): 34 µM (inactive); GI50 (SK-MEL-28): 25.6 µM (inactive); GI50 (BT-549): 26.4 µM (inactive); GI50 (MOLT-4): 18 µM (inactive); GI50 (K562): 24 µM (inactive); GI50 (OVCAR-5): > 100 µM (inactive); GI50 (NCI/ADR-RES): > 100 µM (inactive); GI50 (SW-620): 34.8 µM (inactive); GI50 (U-251): 32.4 µM (inactive); GI50 (SN12C): 34.4 µM (inactive); GI50 (Hs-578T): 71.1 µM (inactive); GI50 (HT-29): 30.6 µM (inactive); GI50 (NCI-H226): 25.6 µM (inactive); GI50 (A498): > 100 µM (inactive); GI50 (HCC 2998): 11.1 µM (inactive); GI50 (MDA-MB-231): 18.7 µM (inactive); GI50 (T47D): 55 µM (inactive); GI50 (SK-MEL-5): > 100 µM (inactive); GI50 (SK-OV-3): 27.2 µM (inactive); GI50 (KM12): 27.3 µM (inactive); GI50 (M14): 91 µM (inactive); GI50 (NCI-H23): 47.9 µM (inactive); GI50 (SK-MEL-2): 55 µM (inactive); GI50 (UACC-62): 21.2 µM (inactive); GI50 (SNB-75): 16.5 µM (inactive); GI50 (Malme-3M): 21.7 µM (inactive); GI50 (OVCAR-4): 38.8 µM (inactive); GI50 (MDA-N): 36.9 µM (inactive); GI50 (A549): > 100 µM (inactive); GI50 (MCF7): 25.9 µM (inactive); GI50 (OVCAR-3): 41.7 µM (inactive); GI50 (SF-539): 22 µM (inactive); GI50 (IGROV-1): 31.1 µM (inactive); GI50 (SR): 29 µM (inactive); GI50 (PC-3): 25.3 µM (inactive); GI50 (HOP-92): 14.6 µM (inactive); GI50 (TK-10): 57.8 µM (inactive); GI50 (UACC-257): 54.5 µM (inactive); GI50 (SNB-19): 53.5 µM (inactive); GI50 (786-0): > 100 µM (inactive); GI50 (SF-268): 28.2 µM (inactive); GI50 (SF-295): 51.1 µM (inactive); GI50 (LOX IMVI): 19.2 µM (inactive)

Reference: ChEMBL document CHEMBL1201862, “PubChem BioAssay data set” (2004)
